Data published in patent US20250109140A1, “5-[5-(PIPERIDIN-4-YL)THIENO[3,2-C]PYRAZOL-2-YL]INDAZOLE DERIVATIVES AND RELATED COMPOUNDS AS MODULATORS FOR SPLICING NUCLEIC ACIDS AND FOR THE TREATMENT OF PROLIFERATIVE DISEASES” (REMIX THERAPUTICS INC., priority 2022, published 2025).
Where a name gives a salt, the structure may show the parent alone. Read-outs that look alike come from different tables or passages of the source.

How the values were obtained:
Assay type in all cases: cell-based
SMN2 mRNA = test: Splicing RT-qPCR gene panel, SMN2 canonical junction (CJ) mRNA; details: Homo sapiens; Table 8; larger gene panel, decrease in CJ mRNA levels
Method in brief: (§1)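 Junction-specific RT-qPCR read-out: CJ marks canonical transcript, AJ marks alternative-exon inclusion, each normalized to GAPDH, GUSB or PPIA. Cells (A673 or K562) were dosed for 24 h with compound up to 10 uM final in 11 3-fold steps. RQ from 2^(−ΔΔCt) against DMSO became percentage response.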

MYB mRNA = test: Splicing RT-qPCR assay, MYB canonical (CJ) and alternative (AJ) junction mRNA; details: Homo sapiens; for EC50: AC50 = 50% response in AJ mRNA increase
Method in brief: as §1

HTT mRNA = test: Splicing RT-qPCR assay, HTT canonical (CJ) and alternative (AJ) junction mRNA; details: Homo sapiens; for EC50: AC50 = 50% response in AJ mRNA increase
Method in brief: as §1

Target C mRNA = test: Splicing RT-qPCR gene panel, Target C canonical junction (CJ) mRNA; details: Homo sapiens; Table 8; larger gene panel, decrease in CJ mRNA levels
Method in brief: as §1

[1] = Table 7, RT-qPCR, A673 or K562 cells, 24 hours treatment
[2] = Table 7, IC50 = 50% response in CJ mRNA decrease, RT-qPCR, A673 or K562 cells, 24 hours treatment, read-out: MYB CJ
[3] = Table 8, larger gene panel, decrease in CJ mRNA levels, read-out: MYB CJ IC50
[4] = Table 7, IC50 = 50% response in CJ mRNA decrease, RT-qPCR, A673 or K562 cells, 24 hours treatment, read-out: HTT CJ
[5] = Table 8, larger gene panel, decrease in CJ mRNA levels, read-out: HTT CJ IC50

Compound | IC50 (SMN2 mRNA) | EC50 (MYB mRNA; [1]) | IC50 (MYB mRNA; [2]) | IC50 (MYB mRNA; [3]) | EC50 (HTT mRNA; [1]) | IC50 (HTT mRNA; [4]) | IC50 (HTT mRNA; [5]) | IC50 (Target C mRNA)
Cc1nc2c(F)cc(-c3nc4sc(C5CCNCC5)cc4s3)cc2s1 [Compound 126] | 100 to 1000 nM | 1000 to 10000 nM | 1000 to 10000 nM | 1000 to 10000 nM | 100 to 1000 nM | 100 to 1000 nM | 100 to 1000 nM | 1000 to 10000 nM
Cn1cc2ccc(-c3nc4sc(C5CCNCC5)cc4s3)cc2n1 [Compound 127, 2-methyl-6-[5-(piperidin-4-yl)thieno [2,3-d][1,3]thiazol-2-yl]indazole hydrochloride] | 1000 to 10000 nM | 1000 to 10000 nM | 1000 to 10000 nM | 1000 to 10000 nM | 1000 to 10000 nM | 1000 to 10000 nM | 1000 to 10000 nM | 1000 to 10000 nM
CC1CN(c2cc3sc(-c4cc(F)c5nn(C)cc5c4)nc3s2)CCN1C (centres unmarked) [Compound 128, 5-[5-(3,4-dimethylpiperazin-1-yl)thieno[2,3-d][1,3]thiazol-2-yl]-7-fluoro-2-methylindazole] | 100 to 1000 nM | 1000 to 10000 nM | 1000 to 10000 nM | 1000 to 10000 nM | 1000 to 10000 nM | 1000 to 10000 nM | 1000 to 10000 nM | 1000 to 10000 nM
Cn1cc2cc(-c3nc4sc(C5CCNCC5)cn4n3)cc(F)c2n1 [Compound 103, 7-fluoro-2-methyl-5-[5-(piperidin-4-yl)-[1,2,4]triazolo[3,2-b][1,3]thiazol-2-yl]indazole] | > 10000 nM | > 10000 nM | > 10000 nM | > 10000 nM | > 10000 nM | > 10000 nM | > 10000 nM | > 10000 nM
Cn1cc2cc(-c3nc4sc(N5CCNC6(CC6)C5)cc4s3)cc(F)c2n1 [Compound 136, 5-(5-[4,7-diazaspiro[2.5]octan-7-yl]thieno[2,3-d][1,3]thiazol-2-yl)-7-fluoro-2-methylindazole] | 100 to 1000 nM | 100 to 1000 nM | 1000 to 10000 nM | 100 to 1000 nM | > 10000 nM | > 10000 nM | > 10000 nM | > 10000 nM
Cc1cn2cc(-c3nc4sc(C5CCNCC5)cc4s3)cc(F)c2n1 [Compound 130, 4-(2-[8-fluoro-2-methylimidazo[1,2-a]pyridin-6-yl]thieno[2,3-d][1,3]thiazol-5-yl)piperidine hydrochloride] | < 100 nM | < 100 nM | < 100 nM | < 100 nM | < 100 nM | < 100 nM | < 100 nM | < 100 nM
C[C@@H]1C[C@@H](c2cc3sc(-c4cc(F)c5nn(C)cc5c4)nc3s2)CCN1 (single isomer, unassigned) [Compound 193, 7-fluoro-2-methyl-5-[5-(2-methylpiperidin-4-yl)thieno[2,3-d][1,3]thiazol-2-yl]indazole] | < 100 nM | < 100 nM | < 100 nM | < 100 nM | < 100 nM | < 100 nM | < 100 nM | < 100 nM
Cn1cc2cc(-c3nc4sc(N5CCC(NC(C)(C)C)C5)cc4s3)cc(F)c2n1 (centres unmarked) [Compound 143, N-tert-butyl-1-[2-(7-fluoro-2-methylindazol-5-yl)thieno[2,3-d][1,3]thiazol-5-yl]pyrrolidin-3-amine] | 100 to 1000 nM | 100 to 1000 nM | 1000 to 10000 nM | 100 to 1000 nM | 1000 to 10000 nM | 1000 to 10000 nM | 1000 to 10000 nM | 1000 to 10000 nM
Cc1cn2nc(-c3nc4sc(C5=CCOCC5)cc4s3)cc(C)c2n1 [Compound 195, 6-[5-(3,6-dihydro-2H-pyran-4-yl)thieno[2,3-d][1,3]thiazol-2-yl]-2,8-dimethylimidazo[1,2-b]pyridazine] | 100 to 1000 nM | 100 to 1000 nM | 100 to 1000 nM | 100 to 1000 nM | 100 to 1000 nM | 100 to 1000 nM | 100 to 1000 nM | 100 to 1000 nM

More lines, now with the values ahead:

IC50 (SMN2 mRNA) | EC50 (MYB mRNA; [1]) | IC50 (MYB mRNA; [2]) | IC50 (MYB mRNA; [3]) | EC50 (HTT mRNA; [1]) | IC50 (HTT mRNA; [4]) | IC50 (HTT mRNA; [5]) | IC50 (Target C mRNA) | Compound
> 10000 nM | > 10000 nM | > 10000 nM | > 10000 nM | > 10000 nM | > 10000 nM | > 10000 nM | > 10000 nM | COc1c(-c2cc3cn(C4CCNCC4)nc3s2)cc2c[nH]nc2c1C [Compound 248]
100 to 1000 nM | 1000 to 10000 nM | > 10000 nM | 1000 to 10000 nM | 1000 to 10000 nM | 1000 to 10000 nM | 1000 to 10000 nM | > 10000 nM | Cn1cc2c(O)c(-c3nc4sc(C5CCNCC5)cc4s3)ccc2n1 [Compound 231, 2-methyl-5-[5-(piperidin-4-yl)thieno[2,3-d][1,3]thiazol-2-yl]indazol-4-ol]
100 to 1000 nM | 1000 to 10000 nM | 100 to 1000 nM | 1000 to 10000 nM | 1000 to 10000 nM | 100 to 1000 nM | 1000 to 10000 nM | 1000 to 10000 nM | Cn1cc2cc(-c3nc4sc(C5(O)CCNCC5)cc4s3)cc(F)c2n1 [Compound 236, 4-[2-(7-fluoro-2-methylindazol-5-yl)thieno[2,3-d][1,3]thiazol-5-yl]piperidin-4-ol]
1000 to 10000 nM | > 10000 nM | > 10000 nM | > 10000 nM | > 10000 nM | > 10000 nM | > 10000 nM | > 10000 nM | Cn1cc2cc(-c3nc4sc(N5CCC56CCNC6)cc4s3)cc(F)c2n1 (centres unmarked) [Compound 200, 5-(5-{1,6-diazaspiro[3.4]octan-1-yl}thieno[2,3-d][1,3]thiazol-2-yl)-7-fluoro-2-methy-lindazole]
1000 to 10000 nM | > 10000 nM | > 10000 nM | > 10000 nM | > 10000 nM | > 10000 nM | > 10000 nM | 1000 to 10000 nM | Cn1cc2cc(-c3nc4sc(N5CCC56CCCNC6)cc4s3)cc(F)c2n1 (centres unmarked) [Compound 202, 1-[2-(7-fluoro-2-methylindazol-5-yl)thieno[2,3-d][1,3]thiazol-5-yl]-1,6-diazaspiro[3.5]nonane]
< 100 nM | 1000 to 10000 nM | 1000 to 10000 nM | 1000 to 10000 nM | 100 to 1000 nM | 100 to 1000 nM | 100 to 1000 nM | 1000 to 10000 nM | Cn1cc2cc(N3Cc4cc(C5CCNCC5)sc4C3=O)cc(F)c2n1 [Compound 1118, 5-(7-fluoro-2-methylindazol-5-yl)-2-(piperidin-4-yl)-4H-thieno[2,3-c]pyrrol-6-one]
100 to 1000 nM | 1000 to 10000 nM | 1000 to 10000 nM | 1000 to 10000 nM | 1000 to 10000 nM | 1000 to 10000 nM | 1000 to 10000 nM | 1000 to 10000 nM | Cn1cc2cc(N3Cc4sc(C5CCNCC5)cc4C3=O)ncc2n1 [Compound 1125]
100 to 1000 nM | 1000 to 10000 nM | 1000 to 10000 nM | 1000 to 10000 nM | 1000 to 10000 nM | 100 to 1000 nM | 1000 to 10000 nM | 1000 to 10000 nM | Cc1cn2cc(-c3nc4sc(C5CCNCC5)cc4s3)nc2c(C)n1 [Compound 239, 4-(2-{6,8-dimethylimidazo[1,2-a]pyrazin-2-yl}thieno[2,3-d][1,3]thiazol-5-yl)piperidine]
< 100 nM | 1000 to 10000 nM | 100 to 1000 nM | 1000 to 10000 nM | 100 to 1000 nM | < 100 nM | 100 to 1000 nM | 100 to 1000 nM | Cc1cn2cc(-c3nc4sc(C5CCNCC5)cc4s3)nc(C)c2n1 [Compound 270, 4-(2-{2,8-dimethylimidazo[1,2-a]pyrazin-6-yl}thieno[2,3-d][1,3]thiazol-5-yl)piperidine]
1000 to 10000 nM | 1000 to 10000 nM | 1000 to 10000 nM | 1000 to 10000 nM | 1000 to 10000 nM | 1000 to 10000 nM | 1000 to 10000 nM | 1000 to 10000 nM | Cc1cn2nc(-c3nc4sc(C5CCOCC5)cc4s3)cc(C)c2n1 [Compound 196, 2,8-dimethyl-6-[5-(oxan-4-yl)thieno[2,3-d][1,3]thiazol-2-yl]imidazo[1,2-b]pyridazine]
